Structures can show the parent of a compound that is named as a salt.
target: T1, human LCE (Homo sapiens, UniProt Q9H5J4); assay: LCE enzyme activity-inhibitory test; assay type: biochemical; conditions: [14C]-malonyl CoA / palmitoyl CoA substrate, 37° C., 90 minutes
T1 sequence (Q9H5J4 1-265): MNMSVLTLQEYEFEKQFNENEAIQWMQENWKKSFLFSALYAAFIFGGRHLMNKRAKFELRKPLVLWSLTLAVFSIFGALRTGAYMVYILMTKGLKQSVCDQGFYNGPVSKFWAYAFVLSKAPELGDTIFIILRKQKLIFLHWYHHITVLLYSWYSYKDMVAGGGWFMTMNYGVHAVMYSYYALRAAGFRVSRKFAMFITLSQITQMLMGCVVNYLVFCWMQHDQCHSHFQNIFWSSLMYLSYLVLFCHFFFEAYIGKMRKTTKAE
Description: Pharmacological Test Example 1 (LCE Enzyme Activity-inhibitory Test)
A test compound was dissolved in dimethyl sulfoxide (DMSO to be 10 mM), and then diluted with DMSO to prepare a 1000-fold concentrated solution of the test concentration. An improved Moon et al's method (J. Biol. Chem., Vol. 276, pp. 45358-45366, 2001) was employed for the LCE enzyme activity-inhibitor test. Concretely, the diluted compound was applied to a 96-well assay plate (Corning, 96-well assay block) in an amount of 1.0 μL/well; 50 μL of a phosphate buffer solution (100 mM potassium phosphate buffer, pH 6.5), and 25 μL of a substrate solution (100 mM potassium phosphate buffer (pH 6.5), 4.0 μM rotenone, 80 μM fatty acid-free bovine serum albumin, 160 μM palmitoyl CoA, 80 μM malonyl CoA, 3.5 μM [^14C]-malonyl CoA (1.92 GBq/mmol, by Amersham)) were added to each well; 25 μL of an enzyme solution (100 mM potassium phosphate buffer (pH 6.5), 100 μg/mL human LCE) was added thereto; the top of the plate was airtightly sealed up; and this was incubated with gently shaking and stirring at 37° C. for 90 minutes. Next, 100 μL of 5 M hydrochloric acid was added to each well, and the assay plate was stirred at room temperature for 5 minutes to stop the enzyme reaction with hydrolyzing the acyl CoA. Next, the enzyme reaction solution in each well was adsorbed by each well of a 96-well GF/C filter plate (Perkin Elmer Unifilter 96 GF/C); the individual wells were washed with water to remove the non-adsorbed malonyl CoA; and the GF/C filter plate was dried at 50° C. for 60 minutes. Next, 30 μL of a scintillator (Perkin Elmer Microscinti 0) was added to each well; then the top of the plate was sealed up; and the fixed [^14C] radioactivity was measured with a microplate scintillation counter (Perkin Elmer TopCount) to be the enzyme activity. The human LCE enzyme-inhibitory activity of the test compound was calculated, based on the radioactivity of the DMSO-added well with no test compound therein as a control.

IC50 [nM]	SMILES
260	CC(C)Oc1ccc(NC(=O)c2cccc(S(=O)(=O)c3ccccn3)c2)nc1 [Example 122, N-(5-isopropoxypyridin-2-yl)-3-(pyridin-2-ylsulfonyl)benzamide]
53	CC(C)c1ccc(NC(=O)c2cccc(S(=O)(=O)N3CCCC(C(N)=O)C3)c2)cc1 (stereo not shown) [Example 34, 1-[(3-{[(4-Isopropylphenyl)amino]carbonyl]phenyl)sulfonyl}piperidine-3-carboxamide]
280	CC(C)Oc1ccc(NC(=O)c2cccc(S(=O)(=O)NCC(C)c3nc4ccccc4[nH]3)c2)cc1 (stereo not shown) [Example 25, 3-({[2-(1H-benzimidazol-2-yl)propyl]amino}sulfonyl)-N-(4-isopropoxyphenyl)benzamide]
160	CC(C)Oc1ccc(NC(=O)c2cccc(S(=O)(=O)N3CCCC(C(N)=O)C3)c2)nc1 (stereo not shown) [Example 58, 1-[(3-{[(5-Isopropoxypyridin-2-yl)amino]carbonyl}phenyl)sulfonyl]piperidine-3-carboxamide]
3000	CC(C)Oc1ccc(NC(=O)c2cccc(S(=O)(=O)N3CCC[C@@H](C(N)=O)C3)c2)nc1 [Example 59′, (3R)-1-[(3-{[(5-isopropoxypyridin-2-yl)amino]carbonyl}phenyl)sulfonyl]piperidine-3-carboxamide]
5	CC(C)Oc1cc(NC(=O)c2cccc(S(=O)(=O)N3CCCC3C)c2)[nH]n1 (stereo not shown) [Example 64, 3-Isopropoxy-5-({3-[(2-methylpyrrolidin-1-yl)sulfonyl]benzoyl}amino)-1H-pyrazole hydrochloride]
260	O=C(Nc1ncccc1O)c1cccc(S(=O)(=O)N2CCCCC2)c1 [Example 98, N-(3-hydroxypyridin-2-yl)-3-(piperidin-1-ylsulfonyl)benzamide]
1500	CC(C)Oc1ccc(NC(=O)c2cccc(S(=O)(=O)c3cnccn3)c2)cc1 [Example 141, N-(4-isopropoxyphenyl)-3-(pyrazin-2-ylsulfonyl)benzamide]
84	O=C(Nc1cc(C2CC2)n[nH]1)c1cccc(S(=O)(=O)N2CCCCC2)c1 [Example 105, N-(3-cyclopropyl-1H-pyrazol-5-yl)-3-(piperidin-1-ylsulfonyl)benzamide]
2.3	CC(C)Oc1cc(NC(=O)c2cccc(S(=O)(=O)N3CCCCC3)c2)[nH]n1 [Example 69, 3-Isopropoxy-5-{[3-(piperidin-1-ylsulfonyl)benzoyl}amino]-1H-pyrazole hydrochloride]
9600	CC(C)Oc1ccc(NC(=O)c2cccc(S(=O)(=O)N3C[C@@H]4C[C@H]3CN4C)c2)cc1 [Example 8, N-(4-isopropoxyphenyl)-3-{[(1S,4S)-5-methyl-2,5-diazabicyclo[2.2.1]hept-2-yl]sulfonyl}benzamide trifluoroacetate]
4500	CC(C)Oc1ccc(NC(=O)c2cccc(S(=O)(=O)c3cn[nH]c3)c2)cc1 [Example 143, N-(4-isopropoxyphenyl)-3-(1H-pyrazol-4-ylsulfonyl)benzamide]
150	CC(C)Oc1ccc(NC(=O)c2cccc(S(=O)(=O)c3ccccn3)c2)c(F)c1 [Example 126, N-(2-fluoro-4-isopropoxyphenyl)-3-(pyridin-2-ylsulfonyl)benzamide]
670	CC(C)Oc1ccc(NC(=O)c2cccc(S(=O)(=O)N3CCC[C@H]3C)c2)cc1 [Example 24, N-(4-isopropoxyphenyl)-3-{[(2R)-2-methylpyrrolidin-1-yl]sulfonyl}benzamide]
31	CC(C)Oc1ccc(NC(=O)c2cccc(S(=O)(=O)N3CCCCC3)c2)cc1 [Example 91, N-(4-isopropoxyphenyl)-3-(piperidin-1-ylsulfonyl)benzamide]
3500	CC(C)c1ccc(NC(=O)c2cccc(S(=O)(=O)N3[C@H](C)CC[C@H]3C)c2)cc1 [Example 26, 3-{[(2R,5R)-2,5-dimethylpyrrolidin-1-yl]sulfonyl}-N-(4-isopropylphenyl)benzamide]
910	O=C(Nc1ccc(Oc2ccccc2)nc1)c1cccc(S(=O)(=O)N2CCCCC2)c1 [Example 101, N-(6-phenoxypyridin-3-yl)-3-(piperidin-1-ylsulfonyl)benzamide]
1500	O=C(Nc1ccccc1Cl)c1cccc(S(=O)(=O)N2CCCCC2)c1 [Example 89, N-(2-chlorophenyl)-3-(piperidin-1-ylsulfonyl)benzamide]
340	CC(C)Oc1ccc(NC(=O)c2cccc(S(=O)(=O)N3CCC(F)(F)CC3)c2)cc1 [Example 17, 3-[(4,4-Difluoropiperidin-1-yl)sulfonyl]-N-(4-isopropoxyphenyl)benzamide]
240	O=C(Nc1ccc(OC2CCCC2)cc1F)c1cccc(S(=O)(=O)c2ccccn2)c1 [Example 125, N-[4-(cyclopentyloxy)-2-fluorophenyl]-3-(pyridin-2-ylsulfonyl)benzamide]
420	COc1ccccc1NC(=O)c1cccc(S(=O)(=O)c2ccccc2)c1 [Example 134, N-(2-methoxyphenyl)-3-(phenylsulfonyl)benzamide]
5200	CC(C)Oc1ccc(NC(=O)c2cccc(S(=O)(=O)N3CCN4CCCCC4C3)c2)cc1 (stereo not shown) [Example 13, N-(4-Isopropoxyphenyl)-3-(octahydro-2H-pyrido[1,2-a]pyrazin-2-ylsulfonyl)benzamide trifluoroacetate]
67	COc1cccnc1NC(=O)c1cccc(S(=O)(=O)N2CC3CCC2C3)c1 (stereo not shown) [Example 49, 3-(2-Azabicyclo [2.2.1]hept-2-ylsulfonyl)-N-(3-methoxypyridin-2-yl)benzamide]
1500	CC(C)Oc1ccc(NC(=O)c2cccc(S(=O)(=O)c3cccnc3)c2)cc1 [Example 130, N-(4-isopropoxyphenyl)-3-(pyridin-3-ylsulfonyl)benzamide]
66	CC(C)c1ccc(NC(=O)c2cccc(S(=O)(=O)N3CCCC(CO)C3)c2)cc1 (stereo not shown) [Example 37, 3-{[3-(hydroxymethyl)piperidin-1-yl]sulfonyl}-N-(4-isopropylphenyl)benzamide]
1100	CNC(=O)C1CCCN(S(=O)(=O)c2cccc(C(=O)Nc3ncccc3OC)c2)C1 (stereo not shown) [Example 60, 1-[(3-{[(3-methoxypyridin-2-yl)amino]carbonyl}phenyl)sulfonyl]-N-methylpiperidine-3-carboxamide]
30	CC(C)Oc1ccc(NC(=O)c2cccc(S(=O)(=O)N3CCCC(c4nc5ccccc5[nH]4)C3)c2)cc1 (stereo not shown) [Example 5, 3-{[3-(1H-benzimidazol-2-yl)piperidin-1-yl]sulfonyl}-N-(4-isopropoxyphenyl)benzamide]
1600	COc1cccnc1NC(=O)c1cccc(S(=O)(=O)N2C3CCCC2CC3)c1 [Example 54, 3-(8-Azabicyclo[3.2.1]oct-8-ylsulfonyl)-N-(3-methoxypyridin-2-yl)benzamide]
2200	CC(C)Oc1ccc(NC(=O)c2cccc(S(=O)(=O)N3C[C@H]4C[C@@H]3CO4)c2)cc1 [Example 1, N-(4-isopropoxyphenyl)-3-[(1R,4R)-2-oxa-5-azabicyclo[2.2.1]hept-5-ylsulfonyl]benzamide]

SMILES	IC50 [nM]
COc1ccccc1NC(=O)c1cccc(S(=O)(=O)N2CCCCC2)c1 [Example 80, N-(2-methoxyphenyl)-3-(piperidin-1-ylsulfonyl)benzamide]	44
O=C(Nc1ccccn1)c1cccc(S(=O)(=O)N2CCCCC2)c1 [Example 74, 2-{[3-(Piperidin-1-ylsulfonyl)benzoyl}amino]pyridine trifluoroacetate]	4900

From patent US8420823B2, “Long-chain fatty acyl elongase inhibitor comprising arylsulfonyl derivative as active ingredient” (MSD K.K., priority 2008, dated 2013)
